This test concerns Mycobacterium tuberculosis. Kind of test: microplate Alamar Blue assay (MABA) against Mycobacterium tuberculosis. Conditions: MIC and IC50 values only in Scheme 5. The format is cell-based. The source says:
The skilled artisan is well aware of the methods for measuring growth of mycobacteria. A common method of detecting growth in mycobacterial cultures involves the use of […]. An exemplary method is the microplate Alamar Blue assay (MABA), described in Falzari, et al., Antimicrob. Agents Chemother. 2005, 49, 1447-1454 (2005), content of which is herein incorporated by reference.
The library compounds of ureas 7, amides 8, and sulfonamides 9 were screened for activity against Mycobacterium tuberculosis using the microplate Alamar Blue assay (MABA), described in Falzari, et al., Antimicrob. Agents Chemother. 2005, 49, 1447-1454 (2005), content of which is herein incorporated by reference. The MIC values were established after initial positive hits were identified (>80% inhibition at 10 μg/mL). Cytotoxicity assays were performed on Vero cells with IC50 values greater than 50 μg/mL under the assay conditions. Activities were subsequently validated in duplicate assays with resynthesized compound.
For orientation: Resazurin is reduced to fluorescent resorufin, in cell work by metabolically active cells.

`COc1ccc(-c2nc3c(c4c2C[C@H](c2ccccc2)OC4)CN(C(=O)N[C@H](C)c2ccccc2)CC3)c(C)c1` [7{4,1}]: the “activity against Mycobacterium tuberculosis” value (from here on “activity”) was “significant activities”.

On to `COc1ccc(NC(=O)N2CCc3nc(-c4ccc(OC)cc4C)c4c(c3C2)CO[C@@H](c2ccccc2)C4)cc1` [7{4,2}, (R)-6-(4-Methoxy-2-methylphenyl)-N-(4-methoxyphenyl)-8-phenyl-3,4,7,8-tetrahydro-1H-pyrano[4,3-c][1,6]naphthyridine-2(10H)-carboxamide], for which the “activity” value is reported as “significant activities”.

For `COc1ccc(-c2nc3c(c4c2C[C@H](c2ccccc2)OC4)CN(S(=O)(=O)c2ccc(C#N)cc2)CC3)c(C)c1` [9{4,4}], the “activity” value is recorded as “significant activities”.

These data come from US20110003776A1, “[…] DERIVATIVES, PHARMACEUTICAL COMPOSITIONS AND THERAPEUTIC TREATMENT THEREOF” (TRUSTEES OF BOSTON UNIVERSITY, priority 2009, published 2011).
